Patent publication US20140370131A1, “Pharmaceutical Composition for Protecting Brain Neurons Comprising Plumula Nelumbinis Extract as Active Ingredient” (priority 2012, published 2014)

Columns and labels:
[1] = Hydrogen peroxide (H2O2) scavenging activity, ABTS-peroxidase system; conditions: pH 5.0, absorbance at 405 nm
Protocol: Hydrogen peroxide (H2O2) scavenging activity was measured in a 2,2-azinobis(3-ethylbenzthiazolin)-6-sulfonicacid (ABTS)-peroxidase system according to the Muller method. Each sample was diluted at varying concentrations. 80 μL of each sample solution, 20 μL of 10 mM H2O2 and 100 μL of phosphate buffer (pH 5.0, 0.1 M) were added to a 96-well plate and reacted at 37° C. for 5 minutes. Then, 30 μL of 1.25 mM ABTS and 30 μL of 1 U/mL peroxidase were added thereto and reacted at 37° C. for 10 minutes, and the absorbance at 405 nm was measured using an enzyme-linked immunosorbent assay (ELISA) reader.

ICR mice = assay: Morris water maze test, scopolamine-induced memory damage; type: in vivo, mouse; conditions: memory acquisition test for 4 days; scopolamine 1 mg/kg i.p.; test samples oral (extract 3, 10, 30, 100, 200 mg/kg)
Protocol: To observe the cell-protecting effect and cognitive function-improving effect of the Plumula nelumbinis extract in vivo using a Morris water maze test, International Cancer Research (ICR) mice having an average weight of about 30 g were purchased and acclimated to the environment of the laboratory for 1 week before use in the experiment. The animal breeding room was maintained at room temperature (ca. 22±2° C.) with 12 h light (200-300 lux)/12 h dark cycles. The animals had free access to food (i.e., 22.1% or more crude protein, 8.0% or less crude fat, 0.6% or more calcium, and 0.4% or more phosphorus; Samyang Corp., Korea) and water. The animals were divided into a control group administered with the same amount of injectable saline without scopolamine (Sigma Aldrich), and a group administered with scopolamine. The group administered with scopolamine was treated with 3, 10, 30, 100 and 200 mg/kg of a 80% methanol extract of Plumula nelumbinis. As a positive control, donepezil was used, which is a cholinesterase inhibitor-based drug approved by the FDA, and is used for the treatment of mild, moderate, or severe Alzheimer's disease and for the alleviation of vascular dementia (i.e., dementia involving cerebrovascular disease).
Each of the test samples and the positive control drug was suspended in injectable sterile water and administered at a unit dose of 10 ml/kg. Scopolamine (1 mg/kg) was administered intraperitoneally each day for 4 days, and the test sample and the positive control drug were administered orally (FIGS. 8A and 8B).
In the water maze test, a learning trial was performed on the day before administration of the extract, and then a memory acquisition test was repeated for 4 days. In the learning trial, each test animal was placed into a water pool ([…]) at one of four release points and allowed to find a platform ([…]) by swimming for 60 seconds. […]
During the memory acquisition test, 1 mg/kg of scopolamine was administered intraperitoneally once a day for 4 days at 60 minutes after administration of the Plumula nelumbinis extract. […] The cognitive ability-improving effect was evaluated by measuring the average swimming time (sec) taken for the test animal to find the platform (sec).
After the learning trial for 1 day, scopolamine was administered to cause damage to cognitive function (memory), and the Moths water maze test was performed to examine the cognitive function-improving effect of the extract. In the memory acquisition test performed over 4 days, the cognitive function-improving effect of the extract was evaluated based on a decrease in each of the average swimming times taken to find the platform and the swimming distance. […]

[2] = DPPH radical scavenging activity; conditions: 30 minutes in the dark, absorbance at 517 nm
Protocol: The test sample was weighed, dissolved in methanol or ethanol, and then filtered through a 0.45-μm filter. The prepared sample was serially diluted. Varying concentrations of 150 μl of each diluted sample were added to a 96-well micro plate, followed by addition of DPPH. The 96-well micro plate was placed in a dark room and allowed to stand for 30 minutes. The absorbance at 517 nm was measured.

Row | SMILES | hydrogen peroxide (H2O2) scavenging IC50 [1] [µg/mL] | average swimming distance (ICR mice) | average swimming time taken to find the platform (ICR mice) | DPPH radical scavenging IC50 [2] [µg/mL]
1 | COc1ccc(O)c(C(C)(C)C)c1 [butylated hydroxy anisole (BHA), butylated hydroxy anisole] | 160.58 | – | – | –
2 | COc1cc2c(cc1OC)C(=O)C(CC1CCN(Cc3ccccc3)CC1)C2 (stereo not drawn) [donepezil] | – | gradual decreases | gradual decreases | –
3 | CN1[C@@H]2C[C@@H](OC(=O)[C@H](CO)c3ccccc3)C[C@H]1[C@@H]1O[C@@H]12 [scopolamine] | – | increased rather than decreased | increased rather than decreased | –
4 | O=C1O[C@H]([C@@H](O)CO)C(O)=C1O [vitamin C, ascorbic acid] | – | – | – | 27.73
